This is an account of results in patent publication US4855308A, “Method of treating senile cognitive decline with N'-substituted aminopyridine adrenergic agents” (Warner-Lambert Company, priority 1987, dated 1989).

By IC50 is commonly meant the midpoint of a concentration-inhibition curve. In general, minimal effective dose refers to the lowest level tested that produced the effect sought.

Like-named read-outs stand apart in the source and are kept apart here. Where only a bound is given, the exact number is not on record here.

Assay [1] concerns scopolamine-induced swimming hyperactivity. Nature of the assay: scopolamine induced swimming test (SIS), reversal of scopolamine-induced swimming hyperactivity. The class given is in vivo, laboratory rats (b65); mice (b66). To be noted: for inhibition in vivo at 0.32 mg/kg / inhibition in vivo at 3.2 mg/kg / inhibition in vivo at 32 mg/kg: Rattus norvegicus; for inhibition in vivo at 0.32 mg/kg: read-out: Percent Reversal Swimming Hyperactivity, Dose 0.32 mg/kg, SC; for inhibition in vivo at 3.2 mg/kg: read-out: Percent Reversal Swimming Hyperactivity, Dose 3.2 mg/kg, SC; for inhibition in vivo at 32 mg/kg: read-out: Percent Reversal Swimming Hyperactivity, Dose 32 mg/kg, SC; for reversal of scopolamine swimming hyperactivity: scopolamine-treated rats. As for the experimental part: The biological activity of compounds of the present invention was evaluated using the "scopolamine induced swimming test" (SIS). This screen evaluated the ability of the test compounds to reverse the hyperactive swimming behavior of laboratory rats given scopolamine. in this test, untreated rats will generally swim between 20 to 30 meters during a five-minute test period. […] We have discovered unexpectedly that α2-adrenergic antagonists including the compounds in this application also reverse this swimming hyperactivity, perhaps through indirect stimulation of the cholinergic system.
SIS values are reported as the percent reversal of scopolamine, and are determined as follows: [formula] where U, SDT, and ST represent, respectively, the mean activity level in meters swum of untreated, scopolamine-and-drug-treated, and scopolamine-treated mice.

Assay [2] concerns the target α1-adrenergic binding site. Description: binding at the α1-adrenergic binding site. The following applies: read-out: α1 IC50 (Nanomolar). The protocol:
(§1) The binding of representative compounds of this invention at the α1-adrenergic binding site was measured using the protocol described by Hornung, R., et al, Archiv. Pharm., 308:223 (1979). Similarly, the binding at the α2:adrenergic binding site was measured using the method of Rouot, B. R., et al, Life Sci., 25: 769 (1979). The data are presented in Table 2 and illustrate the α2 selectivity of the compounds.

Assay [3] deals with α2-adrenergic binding site. Description: binding at the α2-adrenergic binding site. The following applies: for α1/α2: ratio of IC50 α1/α2; for IC50: read-out: α2 IC50 (Nanomolar). The protocol:
The α2 binding sites are presynaptic and are involved in the control of release of norepinephrine. A compound which acts selectively as an α2-adrenergic antagonist acts to increase noradrenergic activity. Such increases in noradrenergic activity are related to improved cognitive function in animals.
as §1

For assay [4], the system named is spatial working memory in hippocamally-deficient mice. Nature of the assay: Mouse Water Maze (MWM) test. It counts as in vivo, laboratory mice. The following applies: read-out: minimal effective dose (MED). The protocol:
This compound was tested in the Mouse Water Maze (MWM) test which is a direct test of spatial cognitive skill in laboratory mice. This test, which is described in Morris, R., J. Neurosci. Meth., 11: 47-60 (1984), measures the effect of a test drug on spatial working memory in hippocamally-deficient mice.

Where [5] appears, read: 0.32 mg/kg, SC, vs scopolamine 0.1 mg/kg, five-minute test.
Where [6] appears, read: 3.2 mg/kg, SC, vs scopolamine 0.1 mg/kg, five-minute test.
Where [7] appears, read: 32 mg/kg, SC, vs scopolamine 0.1 mg/kg, five-minute test.

Regarding `c1ccc(Nc2ccncc2)cc1` [Compound 1, N-Phenyl-4-pyridinamine], the inhibition in vivo at 0.32 mg/kg in assay [1] (setting [5]) was 27%. The inhibition in vivo at 3.2 mg/kg in assay [1] (setting [6]) amounted to 22%. Moreover, in assay [1] (setting [7]), the inhibition in vivo at 32 mg/kg was found to be 57%.
For `Cc1cccc(Nc2ccncc2)c1` [Compound 2, N-(3-Methylphenyl)-4-pyridinamine], in that order: 52%, 36% and 66%.
For `Cc1ccc(Nc2ccncc2)cc1` [Compound 3, N-(4-Methylphenyl)-4-pyridinamine], the inhibition in vivo at 0.32 mg/kg in assay [1] (setting [5]) is 10%. Also, the inhibition in vivo at 3.2 mg/kg in assay [1] (setting [6]) came to 25%. In assay [1] (setting [7]), the inhibition in vivo at 32 mg/kg is 100%. Besides, the half-maximal inhibitory concentration (IC50) in assay [2] came to 1.6 µM. In assay [3], the α1/α2 is listed as 43 and the IC50 stood at 0.037 µM.
Consider `Clc1cccc(Nc2ccncc2)c1` [Compound 4, N-(3-Chlorophenyl)-4-pyridinamine], for which, in assay [4], the minimal effective dose stood at 3.2 mg/kg. Besides, the inhibition in vivo at 0.32 mg/kg in assay [1] (setting [5]) is 0%. The inhibition in vivo at 3.2 mg/kg in assay [1] (setting [6]) turned out to be 27%. In assay [1] (setting [7]), the inhibition in vivo at 32 mg/kg came out at 75%. Moreover, in assay [2], the IC50 was found to be 7.5 µM. For the same compound, the “selectivity for binding at the α2-adrenergic site” value in assay [3] (from data in Table 2) was “high degree of selectivity for binding at the α2-adrenergic site”. Further, in assay [3], the α1/α2 is 56 and the IC50 was determined as 0.133 µM.
Take `FC(F)(F)c1cccc(Nc2ccncc2)c1` [Compound 5, N-[3-(Trifluoromethyl)phenyl]-4-pyridin-amine]: the inhibition in vivo at 0.32 mg/kg in assay [1] (setting [5]) is 0%. Further, the inhibition in vivo at 3.2 mg/kg in assay [1] (setting [6]) is 0%. Moreover, in assay [1] (setting [7]), the inhibition in vivo at 32 mg/kg was determined as 57%.
Regarding `FC(F)(F)c1ccc(Nc2ccncc2)cc1` [Compound 6, N-[4-(Trifluoromethyl)phenyl]-4-pyridin-amine], in assay [1] (setting [5]), the inhibition in vivo at 0.32 mg/kg was 0%. For the same compound, in assay [1] (setting [6]), the inhibition in vivo at 3.2 mg/kg was found to be 16%. Moreover, in assay [1] (setting [7]), the inhibition in vivo at 32 mg/kg worked out at 55%.
Regarding `COc1cccc(Nc2ccncc2)c1` [Compound 7, N-(3-Methoxyphenyl)-4-pyridinamine], the inhibition in vivo at 0.32 mg/kg in assay [1] (setting [5]) came out at 23%. For the same compound, the inhibition in vivo at 3.2 mg/kg in assay [1] (setting [6]) came to 62%. Besides, the inhibition in vivo at 32 mg/kg in assay [1] (setting [7]) is 31%.
As to `O=[N+]([O-])c1cccc(Nc2ccncc2)c1` [Compound 8, N-(3-Nitrophenyl)-4-pyridinamine], in assay [1] (setting [5]), the inhibition in vivo at 0.32 mg/kg turned out to be 40%. Also, the inhibition in vivo at 3.2 mg/kg in assay [1] (setting [6]) turned out to be 39%. Further, the inhibition in vivo at 32 mg/kg in assay [1] (setting [7]) amounted to 70%.
For `Nc1ccccc1Nc1ccncc1` [Compound 9, N-4-Pyridinyl-1,2-benzenediamine], in that order: 15%, 18% and 72%.
For `Nc1cccc(Nc2ccncc2)c1` [Compound 10, N-4-Pyridinyl-1,3-benzenediamine], in assay [1] (setting [5]), the inhibition in vivo at 0.32 mg/kg was 47%. In addition, the inhibition in vivo at 3.2 mg/kg in assay [1] (setting [6]) was found to be 0%. Moreover, in assay [1] (setting [7]), the inhibition in vivo at 32 mg/kg came out at 41%.
For `CN(C)c1cccc(Nc2ccncc2)c1` [Compound 11, N,N-Dimethyl-N'-4-pyridinyl-1,3-benzene-diamine], in that order: 15%, 4% and 61%.
Take `COC(=O)c1cccc(Nc2ccncc2)c1` [Compound 12, 3-(4-Pyridinylamino)benzoic acid, methyl ester]: the inhibition in vivo at 0.32 mg/kg in assay [1] (setting [5]) turned out to be 15%. The inhibition in vivo at 3.2 mg/kg in assay [1] (setting [6]) was 0%. Further, the inhibition in vivo at 32 mg/kg in assay [1] (setting [7]) was determined as 8%.
As to `Clc1ccc(Nc2ccncc2)c(Cl)c1` [Compound 13, N-(2,4-Dichlorophenyl)-4-pyridinamine], the inhibition in vivo at 0.32 mg/kg in assay [1] (setting [5]) was 0%. Moreover, the inhibition in vivo at 3.2 mg/kg in assay [1] (setting [6]) turned out to be 24%. For the same compound, in assay [1] (setting [7]), the inhibition in vivo at 32 mg/kg came out at 0%.
In the case of `Clc1ccc(Nc2ccncc2)cc1Cl` [Compound 14, N-(3,4-Dichlorophenyl)-4-pyridinamine], in assay [1] (setting [5]), the inhibition in vivo at 0.32 mg/kg turned out to be 31%. Moreover, the inhibition in vivo at 3.2 mg/kg in assay [1] (setting [6]) was found to be 37%. Besides, in assay [1] (setting [7]), the inhibition in vivo at 32 mg/kg was 64%. Further, the IC50 in assay [2] was over 1 µM. In assay [3], the α1/α2 was over 8.5 and the concentration for half-maximal inhibition (IC50) is 0.118 µM.
`O=[N+]([O-])c1cc(Nc2ccncc2)ccc1Cl` [Compound 15, N-(4-Chloro-3-nitrophenyl)-4-pyridinamine]: the inhibition in vivo at 0.32 mg/kg in assay [1] (setting [5]) is 26%. The inhibition in vivo at 3.2 mg/kg in assay [1] (setting [6]) came to 0%. Besides, the inhibition in vivo at 32 mg/kg in assay [1] (setting [7]) turned out to be 0%.
On to `Cc1ccc(Nc2ccncc2)c([N+](=O)[O-])c1` [Compound 16, N-(4-Methyl-2-nitrophenyl)-4-pyridinamine], for which the inhibition in vivo at 0.32 mg/kg in assay [1] (setting [5]) was found to be 0%. Moreover, the inhibition in vivo at 3.2 mg/kg in assay [1] (setting [6]) turned out to be 3%. For the same compound, the inhibition in vivo at 32 mg/kg in assay [1] (setting [7]) came to 14%.
As for `CC(=O)N(c1ccncc1)c1ccc(C)cc1` [Compound 17, N-(4-Methylphenyl)-N-4-pyridinylacetamide], the inhibition in vivo at 0.32 mg/kg in assay [1] (setting [5]) worked out at 35%. Further, the inhibition in vivo at 3.2 mg/kg in assay [1] (setting [6]) is 56%. Further, the inhibition in vivo at 32 mg/kg in assay [1] (setting [7]) is 21%. The half-maximal inhibitory concentration (IC50) in assay [2] was over 10 µM. Moreover, in assay [3], the α1/α2 is given as over 1.9 and the IC50 was determined as 5.4 µM.
On to `CC(=O)N(c1ccncc1)c1ccc(Cl)c(Cl)c1` [Compound 18, N-(3,4-Dichlorophenyl)-N-4-pyridinylacet-amide], for which the inhibition in vivo at 0.32 mg/kg in assay [1] (setting [5]) turned out to be 33%. Further, in assay [1] (setting [6]), the inhibition in vivo at 3.2 mg/kg was 34%. The inhibition in vivo at 32 mg/kg in assay [1] (setting [7]) was 30%.
Take `COC(=O)N(c1ccncc1)c1ccc(C)cc1` [Compound 19, (4-Methylphenyl)-4-pyridinylcarbamic acid, methyl ester]: in assay [1] (sc), the inhibition in vivo at 0.32 mg/kg came to 36%, the inhibition in vivo at 3.2 mg/kg came to 20% and the inhibition in vivo at 32 mg/kg was 17%.
Regarding `COC(=O)N(c1ccncc1)c1ccc(Cl)c(Cl)c1` [Compound 20, (3,4-Dichlorophenyl)-4-pyridinylcarbamic acid, methyl ester], in assay [1] (sc), the inhibition in vivo at 0.32 mg/kg was 6%, the inhibition in vivo at 3.2 mg/kg stood at 0% and the inhibition in vivo at 32 mg/kg is 9%.
As to `COC(=O)C1=CCCN(C)C1` [arecoline, reference compound], the “reversal of scopolamine swimming hyperactivity” value (from here on “reversal”) in assay [1] is on record as “can be reversed”.
In the case of `CN(C)C(=O)Oc1cccc([N+](C)(C)C)c1` [neostigmine, reference compound], in assay [1], the “reversal” value is on record as “does not reverse the effect of scopolamine”.
`CNC(=O)Oc1ccc2c(c1)[C@]1(C)CCN(C)[C@@H]1N2C` [physostigmine, reference compound]: the “reversal” value in assay [1] was “can be reversed”.
With `C[N+]1(C)C2CC(OC(=O)C(CO)c3ccccc3)CC1C1OC12` (stereo not shown) [scopolamine methyl nitrate, reference compound], the “behavioral changes” value in assay [1] (same conditions as scopolamine) is “does not produce any behavioral changes”.
In the case of `CN1[C@@H]2C[C@@H](OC(=O)[C@H](CO)c3ccccc3)C[C@H]1[C@@H]1O[C@@H]12` [scopolamine, reference compound], the “increase of swimming distances above baseline values” in assay [1] (scopolamine 0.1 mg/kg, five-minute test period, rats) is given as 75-125%.
